According to patent publication US20140031787A1, “FEEDBACK-BASED DIURETIC OR NATRIURETIC MOLECULE ADMINISTRATION” (Medtronic, Inc., priority 2012, published 2014):

Columns and labels:
male dog = assay: NICOM study: cardiac data in anesthetized, mechanically ventilated dog; format: in vivo; conditions: phenylephrine followed by SNP; for cardiac output (CO): dobutamine incremental infusion doses, esmolol after dobutamine
Description: In one embodiment, the monitor comprises two electrodes (2601, 2602) which carry out two roles simultaneously. The first role is to deliver a continuous low-voltage alternating electrical current. The second role is to sample at a very fast rate the signal emanating from a patient. The signals are then analyzed to determine stroke volume (SV), heart rate (HR), cardiac output (CO), stroke volume variation (SVV) and other hemodynamic information. In one embodiment, the two electrodes 2601 and 2602 are placed on the surface of the chest of a human being 2604 to collect cardiac data. Although a human being 2604 is depicted, one of ordinary skill will understand that any mammal can be the subject. Further, one of ordinary skill in the art will appreciate that the two electrodes 2601 and 2602 may be placed on different locations of the body of the subject to obtain data.
A noninvasive cardiac output monitoring (NICOM) monitor was utilized to measure cardiac data from an anesthetized, mechanically ventilated, 54 lb, 42 inch (nose to base of tail) male dog. FIGS. 23-27 depict the cardiac data measured by the NICOM monitor.
The gap in data at 11:20 indicates electrocautery interference when the chest of the dog was opened. FIG. 24 depicts the data in response to sequential fluid boluses. An approximate 20% increase in CO was detected reflecting changes in both SV and HR. […] FIG. 26 depicts the cardiodepressant effect of the ultra-short beta-blocker esmolol given after dobutamine and recalibration. […] FIG. 27 depicts the response to increasing blood pressure with phenylephrine followed by decreasing blood pressure with sodium nitroprusside (SNP). Prior to this intervention, the dog chest had been opened and commercially available flow monitors had been implanted on the pulmonary artery (PA). Baseline PA flow data, which was measured by the implantable monitors, was 2.7 L/min. The PA flow data measured by the NICOM monitor was 2.812 L/min.

[1] = system: canine model high-rate paced (HRP); assay: Pharmacodynamic study of VD by subcutaneous infusion in high-rate paced canine heart failure model
Description: The pharmacodynamic effects of VD delivered by subcutaneous infusion were investigated in a canine model high-rate paced (HRP) to a heart rate of 240 bpm (ventricular pacing) over a period of 10 days to simulate HF. The canines were divided into a control group and an experimental group. The control group received a continuous subcutaneous infusion of the Tris buffer without VD over the course of the 10 day period. The experimental group received continuous subcutaneous infusion of VD dissolved in Tris buffer at a dosing rate of 100 ng/kg·min based upon the body weight of individual canines.
Seven days prior to the beginning of HRP (Day −7), all dogs were instrumented for ventricular pacing with an IPG (implantable pulse generator) including an RA (right atrium) and RV (right ventricle) lead, and a DSI (Digital Sciences International) device in the femoral artery for arterial blood pressure monitoring. Glomerular filtration rate (GFR) was measured by iohexol clearance on the day before the beginning of HRP (Day −1). On Day 0, high-rate pacing was initiated at a rate of 240 BPM (beats per minute) and maintained continuously over the course of a 10 day period (Days 0-10). After HRP was started on Day 0, urine, blood, and hemodynamic data was collected from conscious animals to serve as a baseline.
On Days 0-10, in combination with pacing, each animal received continuous subcutaneous (SQ) infusion of an agent (Tris buffer solution for control animals and vessel dilator in Tris buffer for experimental animals) delivered via external catheter and pump. SQ infusion was performed using Medtronic MiniMed® 407C pumps equipped with 3.0 mL reservoirs (#MMT-103A) and Medtronic Silhouette® combo infusion sets (#MMT373). GFR measurements were repeated on Day 9. On Day 10 (with HRP On), a pre-term monitor was performed for urine and hemodynamic data collection on conscious animals. Once the data was collected, HRP was turned off and the animals were euthanized.

Dahl/SS rats = assay: Pharmacodynamic study of VD by SQ infusion in Dahl/SS rats on 4% salt diet; conditions: for blood pressure compared with 4% vehicle control group at week 3: week 3, p-value<0.05
Description: The pharmacodynamic effects of VD were investigated in a rat model. Forty male Dahl/SS rats were shipped to the animal facilities at PhysioGenix, Inc. (Milwaukee, Wis.). The rats were maintained on a low-salt diet and allowed to acclimate. After acclimation, animals had baseline parameters collected while on the low-salt diet. Baseline tail-cuff blood pressures and echocardiograms were measured. Baseline urine was collected for analysis of protein and albumin. Animals were then randomly assigned to one of 4 groups (10 animals per group):
1. Vehicle Control; low-salt diet, n=10 2. Vehicle Control; 4% salt diet, n=10 3. Vessel dilator, 100 ng/kg/min, 4% salt diet, n=10 4. Vessel dilator, 300 ng/kg/min, 4% salt diet, n=10
The vehicle control groups were infused with a citrate-mannitol-saline buffer (0.66 mg/mL citric acid, 6.43 mg/mL sodium citrate, 40 mg/mL mannitol, 9 mg/mL NaCl). The animals were on a Teklad 7034 (low-salt) diet or Dyets AIN-76A 4% salt diet, as indicated, throughout a 6 week course of the study and had free access to water.
Alzet® minipumps (Durect, Corp.) were surgically implanted on Days 1, 15, and 29 of the study to maintain continuous vehicle or drug dispensing at the desired dose for a total period of 6 weeks. Urine was collected at baseline, 2, 4 and 6 weeks after the initiation of the treatment to assess proteinuria and albuminuria. After six weeks of treatment, the animals were then euthanized.

Question: Which “cardiac output (CO)” value (male dog; NICOM monitor) does the source give for CC(CCc1ccc(O)cc1)NCCc1ccc(O)c(O)c1 (stereo not drawn) [dobutamine] here?
Answer: marked increase

Question: How did the “cardiac output (CO)” value (male dog; NICOM monitor) turn out when COC(=O)CCc1ccc(OCC(O)CNC(C)C)cc1 (stereo not drawn) [esmolol] was run?
Answer: marked decline

Question: With CNC[C@H](O)c1cccc(O)c1 [phenylephrine] as the compound, how does the “cardiac output (CO)” value (male dog; NICOM monitor) read?
Answer: reduced

Question: What about the “heart rate (HR)” value (male dog; NICOM monitor) of the same compound?
Answer: reflex slowing

Question: What about the blood pressure (male dog) of the same compound?
Answer: elevated

Question: “vessel dilator (EVVPPQVLSEPNEEAGAALSPLPEVPPWTGEVSPAQR; Vessel dilator; UniProt P01160 56-92, looked up) [VD]” was tested. Which “difference in pulmonary capillary wedge pressure between control and experimental group on Day 10” value ([1]; VD 100 ng/kg·min SQ infusion, two-way repeated measures ANOVA) did it give?
Answer: does not appear to be statistically significant

Question: And the “extent of increase in pulmonary capillary wedge pressure Day 0 to Day 10 compared with control group” value ([1]; VD 100 ng/kg·min continuous SQ infusion)?
Answer: smaller than that observed in the control group

Question: What about the “increase in right atrial pressure compared with control group” value ([1]; VD 100 ng/kg·min continuous SQ infusion, Day 10, p-value<0.05) of the same compound?
Answer: significantly less than for the control group

Question: And the “mean right atrial pressure, change from Day 0 to Day 10” value ([1]; VD 100 ng/kg·min continuous SQ infusion, HRP 240 bpm for 10 days)?
Answer: increased slightly

Question: And the “average blood pressure compared with vehicle control group on 4% salt diet” value (Dahl/SS rats; high-dose VD 300 ng/kg/min SQ infusion)?
Answer: attenuated blood pressure

Question: What about the “blood pressure compared with 4% vehicle control group at week 3” value (Dahl/SS rats; high-dose VD 300 ng/kg/min) of the same compound?
Answer: statistically significant decrease

Question: And the “decrease in blood pressure compared with 4% vehicle control group at week 5” value (Dahl/SS rats; high-dose VD 300 ng/kg/min)?
Answer: not as statistically significant

Question: And the “average blood pressure compared with vehicle control group on 4% salt diet” value (Dahl/SS rats; low-dose VD 100 ng/kg/min SQ infusion)?
Answer: attenuated blood pressure

Question: And the “blood pressure compared with 4% vehicle control group at week 3” value (Dahl/SS rats; low-dose VD 100 ng/kg/min)?
Answer: statistically significant decrease

Question: And the “decrease in blood pressure compared with 4% vehicle control group at week 5” value (Dahl/SS rats; low-dose VD 100 ng/kg/min)?
Answer: not as statistically significant
